Assay results as given in ChEMBL document CHEMBL1201862, “PubChem BioAssay data set” (2004).
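Compound exposure: 48 hours, 5 concentrations, 96-well plates. GI50 marks 50% less growth.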 Calls of active or inactive are those of the source. Rule as the data show it: active = GI50 up to about 1.1 µM and inactive = higher.

Key:
Assay in all cases: inhibition of tumour cell growth, NCI panel, 48 h
[1] = system: BT-549
[2] = system: KM-20L2
[3] = system: DMS-273
[4] = system: SNB-78
[5] = system: DLD-1
[6] = system: XF498
[7] = system: HOP-18
[8] = system: DMS-114

CC1=C2C(=O)c3ccccc3C(=O)[C@H]2[C@H]2CCO[C@H]2O1
GI50 [1]: 13.3 µM (inactive)

O=C(O)CCCc1cc2c(s1)-c1cccc3cccc-2c13
GI50 [2]: 52.2 µM (inactive)
GI50 [3]: 37.8 µM (inactive)
GI50 [4]: 27.6 µM (inactive)
GI50 [5]: 39 µM (inactive)
GI50 [6]: 36.6 µM (inactive)

CC1CC(C#N)=C2NCCN2C1=O (stereo not given)
GI50 [1]: > 100 µM (inactive)

C=C(C)C1CC2(C)C(C)CC(O)CC2C(OC(=O)C=C(C)C)C1O (stereo not given)
GI50 [1]: 42.4 µM (inactive)

CCOC(=O)O/N=C1/C(=C2/C(=O)Nc3ccccc32)Nc2ccccc21
GI50 [1]: 7.31 µM (inactive)

COc1ccccc1-n1c(C)nc2ccccc2c1=O
GI50 [2]: > 100 µM (inactive)
GI50 [3]: > 100 µM (inactive)
GI50 [4]: > 100 µM (inactive)
GI50 [5]: > 100 µM (inactive)
GI50 [7]: > 100 µM (inactive)
GI50 [8]: > 100 µM (inactive)

Cc1cc(O)nc(NNC(C#N)c2cccc([N+](=O)[O-])c2)n1 (stereo not given)
GI50 [2]: > 100 µM (inactive)
GI50 [3]: > 100 µM (inactive)
GI50 [4]: > 100 µM (inactive)
GI50 [5]: > 100 µM (inactive)
GI50 [7]: > 100 µM (inactive)
GI50 [8]: > 100 µM (inactive)

O=C1c2cccnc2S(=O)(=O)N1c1ccc(Oc2ccccc2)cc1
GI50 [1]: > 100 µM (inactive)

Cc1cc(-c2ccc(C(=O)C(c3ccccc3)(c3ccccc3)c3ccccc3)[nH]2)on1
GI50 [1]: 18.7 µM (inactive)

C=CCCON(C(=O)OC(C)(C)C)C(C)(C)C
GI50 [1]: > 100 µM (inactive)

Cc1ccc(/N=C/C=C(\Nc2ccc(C)cc2)c2ccc3ccccc3c2)cc1
GI50 [1]: 2.33 µM (inactive)

S=C(N/N=C(/c1ccccc1)c1ccccn1)N1CCCCC1
GI50 [1]: 1.25 µM (inactive)

COc1cc(C(C#N)NNC(=O)Cc2ccccc2)cc(OC)c1OC (stereo not given)
GI50 [2]: > 100 µM (inactive)
GI50 [3]: > 100 µM (inactive)
GI50 [4]: > 100 µM (inactive)
GI50 [5]: > 100 µM (inactive)
GI50 [7]: > 100 µM (inactive)
GI50 [8]: 99.1 µM (inactive)

COc1cc2oc(=O)cc(C)c2cc1O
GI50 [1]: > 100 µM (inactive)

N#Cc1c(-c2ccccc2)cc(Nc2ccc(F)cc2)n2c1nc1ccccc12
GI50 [1]: 3.24 µM (inactive)

c1ccc2c(c1)[nH]c1nc3cc(-c4ccc5nc6c(nc5c4)[nH]c4ccccc46)ccc3nc12
GI50 [1]: > 100 µM (inactive)

CC1CC/C(=C\c2ccc(Cl)cc2)c2nc(N)c(C#N)c(-c3ccc(Cl)cc3)c21 (stereo not given)
GI50 [1]: 75.5 µM (inactive)

CC1CC(=O)NC2CC1C2(C)C (stereo not given)
GI50 [1]: > 100 µM (inactive)

CCC1(CC)C(=O)N(C(=O)c2ccc(C)cc2)N(C(=O)c2ccc(C)cc2)C1=O
GI50 [1]: > 75 µM (inactive)

CN/C(=N\N=C1/C(=O)Nc2ccccc21)SCC(=O)c1ccc(Br)cc1
GI50 [1]: 68.1 µM (inactive)

COc1cc(/C=C/C(=O)N[C@@H]2C(=O)N3[C@@H]2SC(C)(C)[C@@H]3C(=O)O)cc(OC)c1OC
GI50 [1]: > 100 µM (inactive)

CCOC1c2cc(C(C)C)c(O)c(O)c2[C@@]23CCCC(C)(C)C2C1OC3=O (stereo not given in full)
GI50 [2]: > 100 µM (inactive)
GI50 [3]: > 100 µM (inactive)
GI50 [4]: > 100 µM (inactive)
GI50 [5]: 61.7 µM (inactive)
GI50 [8]: 62.4 µM (inactive)

C/C(=C(/C)c1cc[n+](C)cc1)c1cc[n+](C)cc1
GI50 [2]: > 75 µM (inactive)
GI50 [3]: 36.1 µM (inactive)
GI50 [4]: > 75 µM (inactive)
GI50 [5]: 39.9 µM (inactive)
GI50 [7]: > 75 µM (inactive)
GI50 [8]: 16.2 µM (inactive)

CC1(C)OC1COc1c2occc2cc2ccc(=O)oc12 (stereo not given)
GI50 [1]: 38.8 µM (inactive)

CON(C)C(=O)C(C)NC(=O)OCc1ccccc1 (stereo not given)
GI50 [1]: > 100 µM (inactive)

COc1ccc(-c2c3c(cc4cc5c(cc24)OCO5)C(=O)OC3)cc1OC
GI50 [1]: 0.51 µM (active)

CC(=O)OCCOc1cc2c([nH]c3ccccc32)c(C)c2cccc1-2
GI50 [1]: 2.75 µM (inactive)
